This is an account of results in patent publication US20250144069A1, “BILOBALIDE DERIVATIVE COMPOUNDS FOR TREATING NEUROLOGICAL DISEASES AND CANCERS” (The Chinese University of Hong Kong, priority 2023, published 2025).

Counter-ions that a name gives are not always drawn. Like-named read-outs stand apart in the source and are kept apart here.

Data set [1] deals with KP-1 cells. Briefly: Dose-dependent CCK8 viability assay. Format: cell-based. Particulars: Mus musculus, 48 hours. As for the experimental part:
(§1) In this example, dose-dependent CCK8 Viability assay was performed to determine the IC50 (the concentration of compound to achieve 50% viability) of several of the hit compounds identified from Example 2. A variety of cell lines were used: • Jurkat cells: Human leukemia • A549 cells: Human NSCLC • KP-1 cells: Mouse NSCLC with KRAS and P53 mutations • MCF-7 cells: Human breast cancer
(§2) Method for Adherent Cells (A549, MCF-7 and KP-1 Cells)
(§3) 5000 cells/100 uL were seeded in 96-well plates and incubate at 37° C.+5% CO2 overnight. Media were replaced with 100 uL of compound per well in 6 replicates in a series of 2-fold dilutions. The following controls were prepared.
(§4) Blank control: 100 uL 0.1% DMSO in media with no cells per well.
(§5) Positive control: 100 uL of 10 uM 5-flurouracil per well.
(§6) Negative control: 100 uL of 0.1% DMSO in media per well.
(§7) Each 96-well plate included 1 compound in 7 concentrations and a complete set of controls (in 6 replicates).
(§8) Cells were incubated at 37° C.+5% CO2 for 46 hours. 10 uL of CCK8 solution was added to each well. Cells were incubated at 37° C.+5% CO2 for 2 hours. Absorbance at 450 nm was measured using a multiplate reader.
(§9) Viability was calculated using the equation: […]
(In general: Formazan colour is commonly taken as a measure of viable cells.)

Data set [2] relates to A549 cells. Briefly: Dose-dependent CCK8 viability assay. Format: cell-based, human. Particulars: Homo sapiens. The protocol: as §1, §2, §3, §4, §5, §6, §7, §8, §9
For data set [3], the system named is Jurkat cells. Briefly: Single-dose CCK-8 cell viability screening (suspension cells). Format: cell-based, human. Particulars: Homo sapiens, 48 h.
The nature of data set [4]: Single-dose CCK-8 cell viability screening (adherent cells). Format: cell-based, human. Particulars: Homo sapiens, average of A549 and Jurkat % viability, 50 uM, 48 h.
Data set [5] relates to A549 cells. The data set is described as above. Type of data set: cell-based, human. Particulars: Homo sapiens, read-out: % Viability (50 uM, 48 h) A549.
Data set [6] in a line: Hydrolytic stability in buffer monitored by LC-MS/MS.
The mark [7] stands for this setting: Jurkat, Jurkat cells, 50 uM, CCK-8, read-out: % Viability (50 uM, 48 h) Jurkat.
Where [8] appears, read: A549, 48 h, A549 cells, 50 uM, 48 h, CCK-8.

A word on the IC50: it is the concentration that gives 50% inhibition. In data set [1], `CC(C)(C)[C@]1(O)C[C@@H]2OC(=O)C[C@@]23C(=O)O[C@@H]2N(CC4C5CC6CC(C5)CC4C6)C(=O)[C@H](OC(=O)c4ccc(CN)cc4)[C@]213` (stereo partly drawn) [SCC506, (3aS,5aS,8R,8aS,9R,10aS)-6-(((1S,3S)-adamantan-2-yl)methyl)-9-(tert-butyl)-9-hydroxy-2,4,7-trioxooctahydro-4H,9H-furo[3″,2″:2′,3′]cyclopenta[1′,2′:3,4]furo[2,3-b]pyrrol-8-yl 4-(aminomethyl)benzoate hydrochloride] had an IC50 of 17.2 µM.

The viability is a read-out of living cells in per cent, often relative to untreated cells. Consider `CC(C)(C)[C@]1(O)C[C@@H]2OC(=O)C[C@@]23C(=O)O[C@@H]2N(c4ccc(C(F)(F)F)cc4)C(=O)[C@H](OC(=O)c4ccccc4)[C@]213` [P-29, (3aS,5aS,8R,9R,10aS)-9-(tert-butyl)-9-hydroxy-2,4,7-trioxo-6-(4-(trifluoromethyl)phenyl)octahydro-4H,9H-furo [3″,2″:2′,3′]cyclopenta [1′,2′:3,4]furo [2,3-b]pyrrol-8-yl benzoate], for which, in data set [2] (A549, 48 h), the IC50 was 5.84 µM. Also, the viability at 50 µM in data set [3] (setting [7]) was found to be 59.6%; in data set [4] (A549, 48 h) it was 53.1%; in data set [5] (setting [8]), 46.7%.

`CC(C)(C)[C@]1(O)C[C@@H]2OC(=O)C[C@@]23C(=O)O[C@@H]2N(c4ccc(Cl)c(Cl)c4)C(=O)[C@H](OC(=O)c4ccccc4)[C@]213` [P-21, (3aS,5aS,8R,8aS,9R,10aS)-9-(tert-butyl)-9-hydroxy-2,4,7-trioxo-6-(3,4-dichloro-phenyl)octahydro-4H,9H-furo [3″,2″:2′,3′]cyclopenta [1′,2′:3,4]furo [2,3-b]pyrrol-8-yl benzoate] displayed an IC50 in data set [2] (A549, 48 h) of 17.9 µM. In addition, the viability at 50 µM in data set [3] (setting [7]) was 53.5%; in data set [4] (A549, 48 h), 55%; in data set [5] (setting [8]), 56.5%.

Compound `CC(C)(C)[C@]1(O)C[C@@H]2OC(=O)C[C@@]23C(=O)O[C@@H]2N(CC45CC6CC(CC(C6)C4)C5)C(=O)[C@H](OC(=O)c4ccccc4)[C@]213` [SCC363, (3aS,5aS,8R,8aS,9R,10aS)-6-(adamantan-1-ylmethyl)-9-(tert-butyl)-9-hydroxy-2,4,7-trioxooctahydro-4H,9H-furo[3″,2″:2′,3′]cyclopenta[1′,2′:3,4]furo[2,3-b]pyrrol-8-yl benzoate] displayed an IC50 in data set [2] (48 hours) of 9.99 µM.

In the case of `CC(C)(C)[C@]1(O)C[C@@H]2OC(=O)C[C@@]23C(=O)O[C@@H]2NC(=O)[C@H](O)[C@]213` [XBB-006, (3aS,5aS,8R,8aS,9R,10aS)-9-(tert-butyl)-8,9-dihydroxytetrahydro-4H,9Hfuro[3″,2″:2′,3′]cyclopenta[1′,2′:3,4]furo[2,3-b]pyrrole-2,4,7(3H,8H)-trione], the viability at 50 µM in data set [3] (Jurkat cells, 50 uM, CCK-8, read-out: % Viability (50 uM, 48 h) Jurkat) is 102%; in data set [4], 99.2%; in data set [5] (A549 cells, 50 uM, 48 h, CCK-8), 96.4%. Besides, the “concentration remaining (hydrolytic stability)” value is recorded as “about 80%” in data set [6] (buffer pH 6.8, after 20 hours) and “above 80%” in data set [6] (buffer pH 7.4, within the first 10 hours).

With `CC(C)(C)[C@]1(O)C[C@@H]2OC(=O)C[C@@]23C(=O)O[C@@H]2N(c4ccc5c(c4)OCO5)C(=O)[C@H](OC(=O)c4ccccc4)[C@]213` [XBB-039, (3aS,5aS,8R,8aS,9R,10aS)-6-(benzo[d][1,3]dioxol-5-yl)-9-(tert-butyl)-9-hydroxy-2,4,7-trioxooctahydro-4H,9H-furo [3″,2″:2′,3′]cyclopenta [1′,2′:3,4]furo [2,3-b]pyrrol-8-yl benzoate], the viability at 50 µM amounted to 69.7% in data set [3] (setting [7]); 74.1% in data set [4] (A549, 48 h); 78.4% in data set [5] (setting [8]).

As to `CC(=O)O[C@H]1C(=O)N(CC2CCN(C(=O)OC(C)(C)C)CC2)[C@H]2OC(=O)[C@]34CC(=O)O[C@H]3C=C(C(C)(C)C)[C@@]214` [XBB-060], the viability at 50 µM in data set [3] (setting [7]) was determined as 104%; in data set [4] (A549, 48 h), 106%; in data set [5] (setting [8]), 108%.

Take `CC(C)(C)[C@]1(O)C[C@@H]2OC(=O)C[C@@]23C(=O)O[C@@H]2N(c4ccc(F)cc4)C(=O)[C@H](OC(=O)c4ccccc4)[C@]213` [P-28, (3aS,5aS,8R,9R,10aS)-9-(tert-butyl)-9-hydroxy-2,4,7-trioxo-6-(4-fluorophenyl)octahydro-4H,9H-furo [3″,2″:2′,3′]cyclopenta [1′,2′:3,4]furo [2,3-b]pyrrol-8-yl benzoate]: the viability at 50 µM is 69.2% in data set [3] (Jurkat, read-out: % Viability (50 uM, 48 h) Jurkat); 72.7% in data set [4] (A549, 48 h); 76.2% in data set [5] (A549, 48 h).

On to `CC(C)(C)[C@]1(O)C[C@@H]2OC(=O)C[C@@]23C(=O)O[C@@H]2N(Cc4ccccc4)C(=O)[C@H](OC(=O)c4ccccc4)[C@]213` [XBB-016], for which the viability at 50 µM in data set [3] (setting [7]) was 107%; in data set [4] (A549, 48 h), 106%; in data set [5] (setting [8]), 105%.

As for `CC(C)(C)[C@]1(O)C[C@@H]2OC(=O)C[C@@]23C(=O)O[C@@H]2N(CCN4CCNCC4)C(=O)C(OC(=O)c4ccccc4)[C@]213` (stereo in doubt) [XBB-028, 4-(2-((3aS,5aS,8S,8aS,9R,10aS)-8-(benzoyloxy)-9-(tert-butyl)-9-hydroxy-2,4,7-trioxohexahydro-4H,9H-furo [3″,2″:2′,3′]cyclopenta [1′,2′:3,4]furo [2,3-b]pyrrol-6(5aH)-yl)ethyl)piperazin-1-ium chloride], the viability at 50 µM was determined as 90.5% in data set [3] (setting [7]); 89.7% in data set [4] (A549, 48 h); 88.8% in data set [5] (setting [8]).

With `CC(C)(C)[C@]1(O)C[C@@H]2OC(=O)C[C@@]23C(=O)O[C@@H]2N(c4ccc(C#N)cc4)C(=O)[C@H](OC(=O)c4ccccc4)[C@]213` [JW107, (3aS,5aS,8R,9R,10aS)-9-(tert-butyl)-6-(4-cyanophenyl)-9-hydroxy-2,4,7-trioxodecahydrofuro [3″,2″:2′,3′]cyclopenta [1′,2′:3,4]furo [2,3-b]pyrrol-8-yl benzoate], the viability at 50 µM was found to be 70.2% in data set [3] (setting [7]); 72.7% in data set [4] (A549, 48 h); 75.2% in data set [5] (setting [8]).
